Drawing on ChEMBL document CHEMBL6153040, “Discovery of the salicylaldehyde-based compound DDO-02267 as a lysine-targeting covalent inhibitor of ALKBH5” (Eur J Med Chem, 2025), this text covers IC50, Kd and inhibition for 24 compounds.

Calls of active or inactive are those of the source. The calls are words filed in the database; no cut-off is given here. Where only a bound is given, the exact number is not on record here.

For assay [1], the target named is T1, RNA demethylase ALKBH5 (Homo sapiens, UniProt Q6P6C2). The assay is described as follows: Inhibition of ALKBH5 (66 to 292 residues) (unknown origin) extracted from Escherichia coli BL21 (DE3) cells using m6A ssDNA as substrate measured after 6 hrs by fluorescence polarization assay.
Target sequence in this assay (Q6P6C2 whole entry, the tested form may be a part): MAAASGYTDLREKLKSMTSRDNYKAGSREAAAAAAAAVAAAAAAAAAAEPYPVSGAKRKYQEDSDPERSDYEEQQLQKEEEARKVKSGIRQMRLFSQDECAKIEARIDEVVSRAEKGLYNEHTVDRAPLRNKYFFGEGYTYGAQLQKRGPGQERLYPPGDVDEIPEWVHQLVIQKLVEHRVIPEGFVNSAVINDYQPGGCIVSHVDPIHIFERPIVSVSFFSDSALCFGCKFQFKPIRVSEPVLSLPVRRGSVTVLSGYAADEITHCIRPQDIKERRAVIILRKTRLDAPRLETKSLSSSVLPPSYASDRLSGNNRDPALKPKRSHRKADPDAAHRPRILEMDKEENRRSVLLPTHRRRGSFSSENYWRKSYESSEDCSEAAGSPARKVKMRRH
Assay [2] concerns the target T1, RNA demethylase ALKBH5. The assay is described as follows: Inhibition of ALKBH5 (66 to 292 residues) (unknown origin) extracted from Escherichia coli BL21 (DE3) cells using m6A ssDNA as substrate measured after 2 hrs by fluorescence polarization assay. Background: Polarisation of emitted light reports the rotation of a fluorescent probe.
Target sequence in this assay (Q6P6C2 whole entry, the tested form may be a part): as above
Assay [3] has as its target T1, RNA demethylase ALKBH5. The assay is described as follows: Inhibition of ALKBH5 (66 to 292 residues) (unknown origin) extracted from Escherichia coli BL21 (DE3) cells using m6A ssDNA as substrate measured after 1 hrs by fluorescence polarization assay.
Target sequence in this assay (Q6P6C2 whole entry, the tested form may be a part): as above
Assay [4] concerns the target T1, RNA demethylase ALKBH5. In words: Inhibition of ALKBH5 (66 to 292 residues) (unknown origin) extracted from Escherichia coli BL21 (DE3) cells using m6A ssDNA as substrate measured immediately by fluorescence polarization assay.
Target sequence in this assay (Q6P6C2 whole entry, the tested form may be a part): as above
In assay [5] the target is T1, RNA demethylase ALKBH5. In words: Binding affinity to ALKBH5 (66 to 292 residues) (unknown origin) extracted from Escherichia coli BL21 (DE3) cells assessed as dissociation constant incubated for 4 hrs by MST analysis.
Target sequence in this assay (Q6P6C2 whole entry, the tested form may be a part): as above
The target of assay [6] is T1, RNA demethylase ALKBH5. The assay is described as follows: Inhibition of ALKBH5 (66 to 292 residues) (unknown origin) extracted from Escherichia coli BL21 (DE3) cells using m6A ssDNA as substrate incubated for 2 hrs by TBE-PAGE based restriction enzyme digestion assay.
Target sequence in this assay (Q6P6C2 2-394 limits assumed): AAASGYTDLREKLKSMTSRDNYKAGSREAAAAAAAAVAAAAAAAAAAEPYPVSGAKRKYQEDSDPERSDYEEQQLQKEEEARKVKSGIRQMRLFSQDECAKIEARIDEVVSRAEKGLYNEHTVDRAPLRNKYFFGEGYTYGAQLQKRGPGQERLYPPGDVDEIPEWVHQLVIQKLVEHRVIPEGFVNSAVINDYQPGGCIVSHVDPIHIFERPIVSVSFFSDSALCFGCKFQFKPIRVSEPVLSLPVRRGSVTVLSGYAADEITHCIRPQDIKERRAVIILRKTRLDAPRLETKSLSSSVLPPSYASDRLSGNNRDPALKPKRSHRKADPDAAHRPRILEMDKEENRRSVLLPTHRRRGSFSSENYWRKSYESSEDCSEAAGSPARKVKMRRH
Assay [7] deals with T1, RNA demethylase ALKBH5. The assay is described as follows: Binding affinity to ALKBH5 (66 to 292 residues) (unknown origin) extracted from Escherichia coli BL21 (DE3) cells assessed as dissociation constant incubated for 3 hrs by MST analysis.
Target sequence in this assay (Q6P6C2 whole entry, the tested form may be a part): as the sequence (Q6P6C2 whole entry, the tested form may be a part) above
In assay [8] the target is T1, RNA demethylase ALKBH5. In words: Binding affinity to ALKBH5 (66 to 292 residues) (unknown origin) extracted from Escherichia coli BL21 (DE3) cells assessed as dissociation constant incubated for 5 hrs by MST analysis.
Assay [9] concerns the target T1, RNA demethylase ALKBH5. In words: Inhibition of ALKBH5 (66 to 292 residues) (unknown origin) extracted from Escherichia coli BL21 (DE3) cells using m6A ssDNA as substrate at 1.25 to 10 uM incubated for 2 hrs in presence of 2-OG by TBE-PAGE based restriction enzyme digestion assay. The conditions noted are these: dose 1.25-10 µM.
Target sequence in this assay (Q6P6C2 2-394 limits assumed): as the sequence (Q6P6C2 2-394 limits assumed) above
The target of assay [10] is T1, RNA demethylase ALKBH5. The assay is described as follows: Inhibition of ALKBH5 (66 to 292 residues) (unknown origin) demethylase activity extracted from Escherichia coli BL21 (DE3) cells at 200 uM preincubated for 3 hrs and measured after compound washout by small molecule dilution method.
Target sequence in this assay (Q6P6C2 2-394 limits assumed): as above
In assay [11] the target is T1, RNA demethylase ALKBH5. In words: Binding affinity to ALKBH5 (66 to 292 residues) (unknown origin) extracted from Escherichia coli BL21 (DE3) cells assessed as dissociation constant incubated for 1.5 hrs by MST analysis.
For assay [12], the target named is T1, RNA demethylase ALKBH5. In words: Binding affinity to ALKBH5 (66 to 292 residues) (unknown origin) extracted from Escherichia coli BL21 (DE3) cells assessed as dissociation constant incubated for 1 hrs by MST analysis.

The term IC50 denotes the point on the concentration scale where inhibition reaches its midpoint. A high value points to lower potency. Turning to `O=C(O)c1ccnc(C(=O)NS(=O)(=O)c2ccccc2-c2ccccc2)c1`, the IC50 against RNA demethylase ALKBH5 [1] is 82.1 µM.

On to `O=C(O)c1ccnc(C(=O)NS(=O)(=O)c2ccc3ccccc3c2)c1`, for which, on RNA demethylase ALKBH5 [1], the IC50 was found to be 15.2 µM.

As to `O=C(O)c1ccnc(C(=O)NS(=O)(=O)c2ccc(-c3ccccc3)cc2)c1`, the midpoint of inhibition against RNA demethylase ALKBH5 [1], the IC50, lay at 16.5 µM.

`CN(C(=O)c1cc(C(=O)O)ccn1)S(=O)(=O)c1ccccc1[N+](=O)[O-]` returned an IC50 against RNA demethylase ALKBH5 [1] of over 200 µM.

On to `O=C(CCl)Nc1cccc(S(=O)(=O)NC(=O)c2cc(C(=O)O)ccn2)c1`, for which the results for the IC50 against RNA demethylase ALKBH5 [2], against RNA demethylase ALKBH5 [3] and on RNA demethylase ALKBH5 [4] were 10.4 µM, 15 µM and 30.6 µM, respectively.

With `O=C(CCl)Nc1ccccc1S(=O)(=O)NC(=O)c1cc(C(=O)O)ccn1`, the figures for the IC50 against RNA demethylase ALKBH5 [2], against RNA demethylase ALKBH5 [3] and against RNA demethylase ALKBH5 [4] were 10.8 µM, 12.5 µM and 18.4 µM, respectively.

Consider `O=C(O)c1ccnc(C(=O)NS(=O)(=O)c2cccc(-c3ccccc3)c2)c1`, for which it took 15 µM to reach half-maximal inhibition against RNA demethylase ALKBH5 [1] (IC50).

Consider `N#Cc1cccc(S(=O)(=O)NC(=O)c2cc(C(=O)O)ccn2)c1`, for which the IC50 against RNA demethylase ALKBH5 [1] is over 200 µM.

Turning to `CC(=O)c1cc(S(=O)(=O)NC(=O)c2cc(C(=O)O)ccn2)ccc1O`, the IC50 against RNA demethylase ALKBH5 [2] was found to be 4.38 µM; against RNA demethylase ALKBH5 [3], 6.5 µM; at RNA demethylase ALKBH5 [4], 14.8 µM.

Take `COc1ccc(S(=O)(=O)NC(=O)c2cc(C(=O)O)ccn2)cc1`: at RNA demethylase ALKBH5 [1], the IC50 stood at 19.1 µM.

The compound `O=C(O)c1cccc(C(=O)NS(=O)(=O)c2ccccc2[N+](=O)[O-])c1` returned an IC50 at RNA demethylase ALKBH5 [1] of over 200 µM.

Regarding `C=CC(=O)Nc1cccc(S(=O)(=O)NC(=O)c2cc(C(=O)O)ccn2)c1`, the IC50 at RNA demethylase ALKBH5 [2] is 3.97 µM; against RNA demethylase ALKBH5 [3] it was 5.32 µM; on RNA demethylase ALKBH5 [4], 7.44 µM.

The compound `COC(=O)c1ccnc(C(=O)NS(=O)(=O)c2ccccc2[N+](=O)[O-])c1` came in with an IC50 against RNA demethylase ALKBH5 [1] of over 200 µM.

As for `CC(=O)c1cc(S(=O)(=O)NC(=O)c2cc(C(=O)O)ccn2)c2ccccc2c1O`, the IC50 on RNA demethylase ALKBH5 [2] turned out to be 5.52 µM; against RNA demethylase ALKBH5 [3], 5.81 µM; on RNA demethylase ALKBH5 [4] it was 8.56 µM.

With `O=C(OCc1ccc(C(F)(F)F)cc1)c1ccc(-c2cc3ncc(C(=O)c4c(O)ccc([N+](=O)[O-])c4O)cn3n2)cc1`, half-maximal inhibition at RNA demethylase ALKBH5 [1] (IC50) was put at 4.06 µM.

For the compound `O=C(O)c1ccnc(C(=O)NS(=O)(=O)c2ccccc2C(F)(F)F)c1`, at RNA demethylase ALKBH5 [1], the IC50 was over 200 µM.

Compound `O=C(O)c1ccnc(C(=O)NCc2ccccc2[N+](=O)[O-])c1` gave an IC50 on RNA demethylase ALKBH5 [1] of over 200 µM.

In turn, `N#Cc1ccccc1S(=O)(=O)NC(=O)c1cc(C(=O)O)ccn1` displayed an IC50 against RNA demethylase ALKBH5 [1] of over 200 µM.

`O=C(O)c1ccnc(C(=O)NS(=O)(=O)c2ccccc2)c1`: the IC50 against RNA demethylase ALKBH5 [2] came out at 52.1 µM; against RNA demethylase ALKBH5 [3], 51.9 µM; on RNA demethylase ALKBH5 [1], 56.8 µM; against RNA demethylase ALKBH5 [4], 64.9 µM.

Turning to `C=CC(=O)Nc1ccccc1S(=O)(=O)NC(=O)c1cc(C(=O)O)ccn1`, the IC50 at RNA demethylase ALKBH5 [2] worked out at 19.2 µM; against RNA demethylase ALKBH5 [3], 21.6 µM; against RNA demethylase ALKBH5 [4], 21.2 µM.

With `O=Cc1cc(S(=O)(=O)NC(=O)c2cc(C(=O)O)ccn2)ccc1O`, the values for the IC50 against RNA demethylase ALKBH5 [2], against RNA demethylase ALKBH5 [3] and against RNA demethylase ALKBH5 [4] were 0.45 µM, 0.55 µM and 3.4 µM, respectively.

Broadly, the Kd is the equilibrium constant for the complex coming apart. On to `O=C(O)c1ccnc(C(=O)NS(=O)(=O)c2cccc3ccccc23)c1`, for which the Kd on RNA demethylase ALKBH5 [5] was found to be 42 µM; at RNA demethylase ALKBH5 [7] it was 63.9 µM; at RNA demethylase ALKBH5 [8], 61.7 µM; on RNA demethylase ALKBH5 [11], 52.2 µM; at RNA demethylase ALKBH5 [12] it was 58.7 µM. Besides, the inhibition result at RNA demethylase ALKBH5 [6] was “Active”. Moreover, the inhibition result on RNA demethylase ALKBH5 [9] and on RNA demethylase ALKBH5 [10] was “inactive” throughout. Further, the IC50 against RNA demethylase ALKBH5 [1] was found to be 12.7 µM.

The compound `N#Cc1ccc(S(=O)(=O)NC(=O)c2cc(C(=O)O)ccn2)cc1` had an IC50 on RNA demethylase ALKBH5 [1] of 39.9 µM.

As for `COc1ccccc1S(=O)(=O)NC(=O)c1cc(C(=O)O)ccn1`, the IC50 on RNA demethylase ALKBH5 [1] was over 200 µM.
